Data on 98 compounds can be found in ChEMBL document CHEMBL3507680, “University of Dundee, Gates Library screen for HepG2 cell viability”.

This data set in a line: Human HepG2 cell viability assay in 384 well format. As to conditions: HepG2 cells, read-out: Inhibition. In kind it is toxicity, cell-based. More on the design: dose 125 nL, time 70.5 hour; cytotoxicity at 70.5 h: concentration not given beside the values.
For `O=C(c1ccc(S(=O)(=O)NCc2ccncc2)cc1)N1CCNCC1`, the cytotoxicity at 70.5 h was -6.98%.

Consider `COc1cc2nc(NCCN3CCNC3=O)cc(C)c2cc1OC`, for which the cytotoxicity at 70.5 h was -0.54%. As to `CCc1nc(CN2CCCCC2C(N)=O)cs1` (stereo not drawn), the cytotoxicity at 70.5 h is -2.28%. With `CCCc1nc(NCCCOC)c2c(n1)c(C)nn2CC`, the cytotoxicity at 70.5 h was found to be 18.7%. In the case of `Cc1ncsc1CN1C[C@@H]2CCCO[C@@H]2[C@H](Nc2ccccn2)C1` it was -4.96%. On to `CC(=O)c1ccccc1C(=O)NCC1(CO)CC1`, for which the cytotoxicity at 70.5 h is 4.58%. `CO[C@H]1CC[C@H]2[C@H]1OCCN2C(=O)C1=CCCC1`: the cytotoxicity at 70.5 h was determined as 9.7%. Consider `CS(=O)(=O)c1nccn1Cc1ccc(Cl)cc1`, for which the cytotoxicity at 70.5 h is -5.04%. On to `CN(Cc1cnc(N)nc1)C(=O)c1coc(COc2cccc(F)c2)n1`, for which the cytotoxicity at 70.5 h was 0.199%. Regarding `Cc1nc(CN2C[C@@H]3CN(C(=O)c4cccn4C)C[C@@H]3C2)cs1`, the cytotoxicity at 70.5 h is -6.14%. For the compound `CCN1CCCC(O)(CNCc2ccncc2)C1` (stereo not drawn), the cytotoxicity at 70.5 h is 14.1%. In the case of `Cc1nc2c(c(C)c1CC(=O)NCc1ccc(F)cc1)c(=O)[nH]n2C`, the cytotoxicity at 70.5 h stood at 21.3%. Consider `COc1nccc(N2CCN(Cc3ccc(C)cc3)C(=O)C2)c1C#N`, for which the cytotoxicity at 70.5 h worked out at 1.75%. Consider `COCCNC(=O)[C@]12COC[C@H]1CN(c1cc(OC)ncn1)C2`, for which the cytotoxicity at 70.5 h was -1.98%. As to `CNc1cccc(C2CCN(C(C)=O)CC2)n1`, the cytotoxicity at 70.5 h was -5.62%. For the compound `Cc1cc(C(F)(F)F)nc(CCNc2nc(C)nc3c2cnn3C)n1`, the cytotoxicity at 70.5 h was -4.44%.

On to `O=C(c1cccs1)N1CC[C@@H]2[C@H]1CCC(=O)N2c1ccccc1`, for which the cytotoxicity at 70.5 h was -16.9%. In the case of `Cc1ccccc1C(=O)N1CC[C@H](O)[C@@H](N2CCOCC2)CC1` it was -4.48%; in that of `CCOc1ccnc(N2CCN(C(=O)c3ccoc3C)CC2)n1`, -3.63%; in that of `CNS(=O)(=O)CC(=O)NC(C)Cc1ccc(-c2ccccc2)cc1` (stereo not drawn), 1.33%. Consider `CCc1ncc2c(n1)CN(C(C)C(=O)Nc1ccc(Cl)cn1)CC2` (stereo not drawn), for which the cytotoxicity at 70.5 h stood at 20.7%. In the case of `Cc1cc(CNC(=O)C2CCCCN2C(=O)OC(C)(C)C)no1` (stereo not drawn) it was -10.1%; in that of `CC(NC(=O)C1CCCC1)c1nc(-c2ccccc2)c[nH]1` (stereo not drawn), 1.26%.

With `CN(Cc1cn2c(n1)CN(C(=O)C1CCOCC1)CC2)Cc1ccco1`, the cytotoxicity at 70.5 h was -1.65%. In the case of `CN(C)CC1CSCCCN1C(=O)c1ccsc1` (stereo not drawn) it was -6.74%. Under `CCCC(=O)NC1CCCN(Cc2cccs2)C1` (stereo not drawn) stands -18.1%; under `CC(C)OC(C)c1nnc(SCC(=O)O)n1-c1ccc(F)cc1F` (stereo not drawn), -6.19%; under `Cc1cc(-c2ccc(C(=O)O)cc2)nc(C2CCCN(C(C)C)C2)n1` (stereo not drawn), -9.15%.

On to `CN(Cc1cccc(F)c1)C(=O)CN1CCCC(Cn2cncn2)C1` (stereo not drawn), for which the cytotoxicity at 70.5 h came out at 15.6%. Regarding `NS(=O)(=O)CC1CCCN1CCOc1ccccc1F` (stereo not drawn), the cytotoxicity at 70.5 h is -12.4%. On to `Cc1ccc(-c2ncc(CN3CCN(S(N)(=O)=O)CC3)s2)o1`, for which the cytotoxicity at 70.5 h is 0.625%.

As for `COc1ccc2c(c1)OCC(Cc1cncc(N)c1)C2` (stereo not drawn), the cytotoxicity at 70.5 h was 8.44%.

Turning to `Cc1nc2ccc(C(=O)N3C[C@@H](O)[C@H](N4CCCC4)C3)cc2[nH]1`, the cytotoxicity at 70.5 h was -1.69%. For the compound `Cc1ccc(S(=O)(=O)N2CCC(S(C)(=O)=O)CC2)cc1C`, the cytotoxicity at 70.5 h is -0.502%. With `COc1c(CNC(C)c2sc(C)nc2C)c(C(C)C)nn1C` (stereo not drawn), the cytotoxicity at 70.5 h is 23.8%. For the compound `CN(CC(=O)Nc1ccc(Br)cn1)C(=O)Cc1ccc(O)cc1`, the cytotoxicity at 70.5 h is -1.46%. Turning to `CC(C)(C)c1n[nH]c(C2CN(C(=O)CCC3CC3)CCO2)n1` (stereo not drawn), the cytotoxicity at 70.5 h was -9.78%.

Take `COc1ccccc1C(C)(C)NC(=O)c1ccc(F)c(NC(C)=O)c1`: the cytotoxicity at 70.5 h is -7.74%. Under `O=C(c1cnc(NCCC2CCCO2)c(Cl)c1)N1CCOCC1` (stereo not drawn) stands -7.98%. For the compound `CC(O)CN1CCN(C(=O)c2cc3ccccc3[nH]c2=O)CC1` (stereo not drawn), the cytotoxicity at 70.5 h is -11%.

Consider `CC(C)CN1CCC2(C1)CN(S(=O)(=O)c1cn(C)cn1)C2`, for which the cytotoxicity at 70.5 h was determined as 4.36%. Under `CN(C)C(=O)CN1CCCC(c2cncc(-c3cccc(Cl)c3)n2)C1` (stereo not drawn) stands -1.23%; under `CCn1nc(C)c(CCNC(=O)C2CCCN(C(N)=O)C2)c1C` (stereo not drawn), 19.9%. `Cc1n[nH]c(=O)c2c(NC(=O)CN3CCOCC3C)oc(C)c12` (stereo not drawn): the cytotoxicity at 70.5 h came out at 4.42%. Under `Cc1nccc([C@@H]2C[C@@H]3CCN(S(C)(=O)=O)C[C@H]3O2)n1` stands -10%; under `Cc1nc2c(NC(CC(C)(C)C)c3cccnc3)ncnc2o1` (stereo not drawn), -10.9%.

Take `Cc1ccc(NC(=O)NC(C)c2nc[nH]n2)cc1` (stereo not drawn): the cytotoxicity at 70.5 h was -5.24%.

As for `CN(C)CCN(Cc1cccnc1)C(=O)c1ccn(-c2ccccc2)n1`, the cytotoxicity at 70.5 h is -3.54%. Under `CN(C)C(=O)NCc1ncn2c1CN(S(C)(=O)=O)CCC2` stands -4.56%; under `CC(C)NC(=O)CCN1CCC(C(=O)c2cc(F)ccc2F)CC1`, -7.21%. In the case of `CC(=O)N1CCN(Cc2ccc(C(F)(F)F)c(F)c2)CC(O)C1` (stereo not drawn), the cytotoxicity at 70.5 h stood at 0.294%.

In the case of `O=C(COc1coc(CN2CCCCC2)cc1=O)c1ccccc1`, the cytotoxicity at 70.5 h was -18.6%.

As to `CCCS(=O)(=O)N1CCC2(CCC(=O)N(CCc3ccncc3)C2)CC1`, the cytotoxicity at 70.5 h is -9.81%. With `Fc1cnc(N2CCOC3(CCN(Cc4ccsc4)CC3)C2)nc1`, the cytotoxicity at 70.5 h was found to be 8.85%. `COC(=O)CC(NC(=O)CCn1cccn1)c1ccc(C)cc1` (stereo not drawn): the cytotoxicity at 70.5 h was -0.705%. Consider `CC(NCc1cn(CCC(N)=O)c2ccccc12)c1nncn1C` (stereo not drawn), for which the cytotoxicity at 70.5 h amounted to 23.7%.

Regarding `Cc1nccn1C1CCCN(C(=O)c2cc3ccccc3[nH]2)C1` (stereo not drawn), the cytotoxicity at 70.5 h was found to be 42.8%.

For `CC(C)(C)C(N)c1nc(-c2nnc[nH]2)no1` (stereo not drawn), the cytotoxicity at 70.5 h is -2.07%. On to `Cc1nc(CN2CCOC(CN(C)c3cccnn3)C2)cs1` (stereo not drawn), for which the cytotoxicity at 70.5 h was -12.9%. Turning to `COCC(c1cccc(C(F)(F)F)c1)N(C)C(=O)c1ccoc1` (stereo not drawn), the cytotoxicity at 70.5 h is -3.47%. As to `CCOc1ccccc1-c1cc(N)[nH]n1`, the cytotoxicity at 70.5 h is -5.47%. As for `CC1CCN(C(=O)[C@H]2C[C@@H]3CCN(CC4CCOCC4)C[C@@H]3O2)CC1`, the cytotoxicity at 70.5 h is -6.29%. `CC(=O)N1CC2(CCN(C(=O)c3ccc4c(c3)OCCO4)CC2)C1`: the cytotoxicity at 70.5 h is 20.2%. For the compound `CCC(=O)N1CCCC1c1nc(N(C)C)ncc1-c1ccc(Cl)cc1` (stereo not drawn), the cytotoxicity at 70.5 h turned out to be 2.05%. Consider `Cc1cnc(C(=O)N2C[C@H]3CN(Cc4cccs4)C[C@H]3C2)cn1`, for which the cytotoxicity at 70.5 h is 8.68%. Turning to `Cc1cc2c(=O)n3c(nc2s1)CCN(C(=O)c1cnn(C)c1)CC3`, the cytotoxicity at 70.5 h is -7.07%. For the compound `CCC[C@@H]1CN(C(=O)c2cc(-c3cccs3)n(C)n2)C[C@H]1NS(C)(=O)=O`, the cytotoxicity at 70.5 h is -4.08%. On to `C[C@@H]1C[C@H]2CN(C(=O)C3=CCCCC3)C[C@H]2O1`, for which the cytotoxicity at 70.5 h is -10.1%. Consider `CC(=O)N1CCC2(C1)C(=O)N(CC1CC1)c1ccccc12` (stereo not drawn), for which the cytotoxicity at 70.5 h is -8.89%.

Regarding `CN(C)CCN(C)C(=O)c1ccccc1-n1cc(CN(C)C)cn1`, the cytotoxicity at 70.5 h was -0.093%. `Cc1ccc(C)c(S(=O)(=O)CCN2CCCC2Cn2cncn2)c1` (stereo not drawn): the cytotoxicity at 70.5 h is -14.3%.

On to `Cn1cnc2c1CCN(Cc1nc(COc3ccc(F)cc3)no1)C2`, for which the cytotoxicity at 70.5 h was 10.6%. Under `Cc1ccc(N2CCC(C(O)Cc3ccccc3)CC2)nn1` (stereo not drawn) stands 1.34%; under `CC1CCC(NCCCN2CCOCC2)CC1` (stereo not drawn), -6.93%; under `Cc1nc(CN2CCCC(N(C)Cc3nnc(C4CC4)o3)C2)no1` (stereo not drawn), 13.8%. Under `c1cnc(Nc2cncc(C3CCCN(c4ncccn4)C3)n2)nc1` (stereo not drawn) stands -7.66%; under `CC1Oc2ccc(S(=O)(=O)NCCCn3ccnc3)cc2NC1=O` (stereo not drawn), -3.81%. Consider `COc1cc(N2CC[C@@H]3O[C@@H](c4ccnc(C)n4)C[C@H]3C2)ncn1`, for which the cytotoxicity at 70.5 h was -4.55%.

For `CC1CCN(S(=O)(=O)N2CCC(Oc3cnccn3)CC2)CC1`, the cytotoxicity at 70.5 h was -5.91%.

Consider `CCOc1cc(C(=O)O)cc(-c2ccccc2)c1OC`, for which the cytotoxicity at 70.5 h is -1.01%. As to `Cc1cc(Br)cnc1N(C)CC1CCOC1` (stereo not drawn), the cytotoxicity at 70.5 h is -3.38%.

For the compound `COc1cccc2c1CCCCN2C(=O)c1oc(C)nc1C`, the cytotoxicity at 70.5 h came out at 0.154%. As to `CCN(Cc1cccc2c1OCCO2)C(=O)NC(C)(C)C`, the cytotoxicity at 70.5 h was -2.31%. With `Cc1noc(C2CCN(C(C)c3nc(C(C)(C)C)no3)CC2)n1` (stereo not drawn), the cytotoxicity at 70.5 h is -14.9%. Consider `Cc1nn(CCc2nnc(NCC(C)C)s2)c(C)c1Br`, for which the cytotoxicity at 70.5 h was -16%. Take `COCC1CN(Cc2ccoc2)Cc2nn(C)cc21` (stereo not drawn): the cytotoxicity at 70.5 h was -2.22%. `Cc1cn(-c2ccccc2)nc1NS(=O)(=O)c1cc(C(=O)O)sc1C`: the cytotoxicity at 70.5 h is -18.9%. With `Cc1ccc(O)c(C(=O)N2CCOCC2c2c(C)nn(C)c2C)c1` (stereo not drawn), the cytotoxicity at 70.5 h is -2.1%. In the case of `O=c1[nH]c2nc(N3CCSCC3)ncc2c(=O)n1-c1cccc(F)c1` it was -0.348%; in that of `Cc1n[nH]c(C)c1CCc1n[nH]c(=O)n1Cc1cccs1`, -0.375%; in that of `O=C1NC[C@@]2(C(=O)O)CN(Cc3cccc(CN4CCOCC4)c3)C[C@@H]12`, 1.62%. `CN(CC(=O)NCC(F)(F)F)Cc1nc2c(s1)CCCC2`: the cytotoxicity at 70.5 h was -9.23%.

For the compound `O=C(c1ccccc1-c1ccccc1)N1C[C@@H]2CNC[C@]2(C(=O)O)C1`, the cytotoxicity at 70.5 h amounted to 1.22%. Under `Cc1nc2ccc(C(=O)N3CCn4c(C)nnc4C3)cc2nc1C` stands -5.63%; under `CCC(CO)Nc1nc(C(F)F)nc2ccccc12` (stereo not drawn), -11.3%; under `Cc1cnc(C(NC(=O)NCc2nc(C3CC3)no2)C2CC2)s1` (stereo not drawn), -1.45%. As to `CCNc1ncc(C(=O)NCc2cccc(OC(F)(F)F)c2)cn1`, the cytotoxicity at 70.5 h is -16.5%. Take `O=C1N(c2ccc(F)cc2)Cc2n[nH]c(=O)n21`: the cytotoxicity at 70.5 h was -2.51%.
